Experimental data published in ChEMBL document CHEMBL3997762 (Medchemcomm, 2016).
Calls of active or inactive are those of the source. No cut-off for these calls is given here.

Assays:
SGC-7901 [1] = assay: Cytotoxicity against human SGC7901 cells assessed as effect on cell viability at 10 uM after 48 hrs by MTT assay relative to control; assay type: functional
GES1 [2] = assay: Cytotoxicity against human GES-1 cells assessed as effect on cell viability at 10 uM after 48 hrs by MTT assay relative to control; assay type: cell-based; conditions: ges1, 48 h
[3] = Stability of the compound in PBS in presence of FBS by fluorescence assay; assay type: physicochemical; conditions: cattle, buffer
[4] = Stability of the compound in DMEM in presence of FBS by fluorescence assay
[5] = Drug uptake in human SGC7901 cells at 5 uM after 24 hrs by MitoTracker Red CM-H2-XRos/Hoechst 33342 dye based confocal fluorescence microscopic analysis; assay type: ADME, cell-based; conditions: sgc-7901, 24 h
[6] = Drug uptake in human SGC7901 cells at 5 uM after 4 hrs by flow cytometry relative to control; assay type: ADME, cell-based; conditions: sgc-7901, 4 h
[7] = Drug uptake in human SGC7901 cells at 5 uM after 24 hrs by flow cytometry relative to control; assay type: ADME, cell-based; conditions: sgc-7901, 24 h
[8] = Drug uptake in human SGC7901 cells at 5 uM after 48 hrs by flow cytometry relative to control; assay type: ADME, cell-based; conditions: sgc-7901, 48 h
SGC-7901 [9] = assay: Cytotoxicity against human SGC7901 cells assessed as effect on cell viability at 50 uM after 48 hrs by MTT assay relative to control; assay type: functional
GES1 [10] = assay: Cytotoxicity against human GES-1 cells assessed as effect on cell viability at 50 uM after 48 hrs by MTT assay relative to control; assay type: cell-based; conditions: ges1, 48 h
[11] = Drug uptake in human SGC7901 cells at 3 uM after 4 hrs by flow cytometry relative to control; assay type: ADME, cell-based; conditions: sgc-7901, 4 h
[12] = Drug uptake in human SGC7901 cells at 3 uM after 24 hrs by flow cytometry relative to control; assay type: ADME, cell-based; conditions: sgc-7901, 24 h
[13] = Drug localization in mitochondria of human SGC7901 cells at 5 uM after 24 hrs by MitoTracker Red CM-H2-XRos/Hoechst 33342 dye based confocal fluorescence microscopic analysis; assay type: ADME
SGC-7901 [14] = assay: Cytotoxicity against human SGC7901 cells assessed as decrease in cell viability pretreated for 4 hrs followed by DTT addition measured 48 to 72 hrs post dose by MTT assay; assay type: functional, cell-based
[15] = Stability of the compound in DMEM in presence of FBS up to 96 hrs by fluorescence assay
GES1 [16] = assay: Cytotoxicity against human GES-1 cells assessed as effect on cell viability up to 100 uM after 48 to 72 hrs by MTT assay; assay type: cell-based
SGC-7901 [17] = assay: Induction of apoptosis in human SGC7901 cells after 48 hrs by Annexin V/[…] staining-based flow cytometric method; assay type: functional, cell-based
[18] = Drug localization in mitochondria of human MCF7 cells at 5 uM after 24 hrs by MitoTracker Red CM-H2-XRos/Hoechst 33342 dye based confocal fluorescence microscopic analysis; assay type: ADME
SGC-7901 [19] = assay: Induction of apoptosis in human SGC7901 cells assessed as decrease in viable cells after 48 hrs by Annexin V/[…] staining-based flow cytometric method; assay type: functional, cell-based
SGC-7901 [20] = assay: Induction of apoptosis in human SGC7901 cells assessed as decrease in nonapoptotic cells after 48 hrs by Annexin V/[…] staining-based flow cytometric method; assay type: functional, cell-based
SGC-7901 [21] = assay: Cell cycle arrest in human SGC7901 cells assessed as accumulation at G1 phase at <20 uM after 24 hrs by propidium iodide staining based flow cytometry; assay type: functional
SGC-7901 [22] = assay: Cell cycle arrest in human SGC7901 cells assessed as accumulation at S phase at >20 uM after 24 hrs by propidium iodide staining based flow cytometry; assay type: functional
SGC-7901 [23] = assay: Induction of ROS production in human SGC7901 cells at 5 to 20 uM after 48 hrs by DHE dye based flow cytometry; assay type: functional, cell-based
SGC-7901 [24] = assay: Cell cycle arrest in human SGC7901 cells assessed as decrease in G1 phase at >20 uM after 24 hrs by propidium iodide staining based flow cytometry; assay type: functional
SGC-7901 [25] = assay: Induction of ROS production in human SGC7901 cells at 5 to 10 uM after 48 hrs by MitoTracker Red CM-H2-XRos dye based flow cytometry; assay type: functional, cell-based

O=C(Cn1cc(F)c(=O)[nH]c1=O)NCC[n+]1ccc(/C=C/c2c[nH]c3ccccc23)cc1.[Br-]
fold change (FC) (SGC-7901 [1]): 0.977
fold change (FC) (GES1 [2]): 1.055
Stability [3]: 72 h
Stability [4]: 48 h
Drug uptake [5]: Not Active
Drug uptake [6]: 0.8%
Drug uptake [7]: 1.4%
Drug uptake [8]: 1.6%
fold change (FC) (SGC-7901 [9]): 0.888
fold change (FC) (GES1 [10]): 1.069

O=c1[nH]c(=O)n(CCC[n+]2ccc(/C=C/c3c[nH]c4ccccc34)cc2)cc1F.[Br-]
Stability [3]: 72 h
Stability [4]: 48 h
Drug uptake [5]: Not Active
Drug uptake [6]: 78%
Drug uptake [7]: 80.5%
Drug uptake [8]: 62.6%
fold change (FC) (SGC-7901 [9]): 1.019
fold change (FC) (GES1 [10]): 1.072

C[n+]1ccc(/C=C/c2c[nH]c3ccccc23)cc1.[I-]
Drug uptake [11]: 95.4%
Drug uptake [12]: 96.9%

O=c1[nH]c(=O)n(CCSSCC[n+]2ccc(/C=C/c3c[nH]c4ccccc34)cc2)cc1F.[Br-]
fold change (FC) (SGC-7901 [1]): 1.108
fold change (FC) (GES1 [2]): 0.978
Stability [3]: 72 h
Drug uptake [13]: Active
Drug uptake [6]: 93.2%
Drug uptake [7]: 98.8%
Drug uptake [8]: 99.6%
Activity (SGC-7901 [14]): Active
fold change (FC) (SGC-7901 [9]): 1.021
fold change (FC) (GES1 [10]): 0.895
Stability [15]: Stable

O=c1[nH]cc(F)c(=O)[nH]1 [FLUOROURACIL]
fold change (FC) (SGC-7901 [1]): 0.986
fold change (FC) (GES1 [2]): 0.733
fold change (FC) (SGC-7901 [9]): 0.6
fold change (FC) (GES1 [10]): 0.53
Activity (GES1 [16]): Toxic

O=C(Cn1cc(F)c(=O)[nH]c1=O)OCC[n+]1ccc(/C=C/c2c[nH]c3ccccc23)cc1.[Br-]
Activity (SGC-7901 [17]): Dose-dependent effect
fold change (FC) (SGC-7901 [1]): 0.707
fold change (FC) (GES1 [2]): 0.822
Stability [3]: 72 h
Stability [4]: 48 h
Drug uptake [18]: Active
Drug uptake [6]: 96.5%
Drug uptake [7]: 96.6%
Drug uptake [8]: 95.8%
Activity (SGC-7901 [19]): Dose-dependent effect
Activity (SGC-7901 [20]): Dose-dependent effect
Activity (SGC-7901 [21]): Active
Activity (SGC-7901 [22]): Active
Activity (SGC-7901 [23]): Active
fold change (FC) (SGC-7901 [9]): 0.597
fold change (FC) (GES1 [10]): 0.561
Activity (GES1 [16]): Non-Toxic
Activity (SGC-7901 [24]): Active
Activity (SGC-7901 [25]): Active
